# Results: patent US20250129334A1, “LINEAGE SPECIFICATION DURING STEM CELL TRANSITION” (Amniotics AB, priority 2021, published 2025)
# “Also recorded” adds a separate entry of the source. Read-outs that look alike come from different tables or passages of the source.
# Tests used:
# HE cells = experiment: HE subculture with metabolic regulators, flow cytometry of hematopoietic output; assay type: cell-based, human
# Source text: The RB9-CB1 human iPSC line (Woods, N.-B. et al. Brief report: efficient generation of hematopoietic precursors and progenitors from human pluripotent stem cell lines. Stem Cells 29, 1158-1164 (2011)) was co-cultured with mouse embryonic fibroblasts (MEFs, Millipore), passaged every six days and processed to form embryoid bodies (EBs) as described previously (Guibentif, C. et al. Single-Cell Analysis Identifies Distinct Stages of Human Endothelial to-Hematopoietic Transition. Cell Reports 19, 10-19 (2017)). The differentiation protocol used in this study was previously described (Ditadi, A. & Sturgeon, C. M. Directed differentiation of definitive hemogenic endothelium and hematopoietic progenitors from human pluripotent stem cells. Methods 101, 65-72 (2016)), however, small modifications were made to induce both primitive and definitive hematopoiesis, as indicated below and in FIG. 6, a. Newly-formed EBs were first kept in SFD medium supplemented with 1 ng/ml Activin A (on days 0-2) and 3 μM CHIR99021 (on day 2 only). At day 3, media was switched to “Day 3-SP34” medium supplemented with 1 ng/ml Activin A (on day 3 only) and 3 μM CHIR99021 (on day 3 only) until day 6. On day 6, media was replaced by “Day 6-SP34” medium, until day 8. In some experiments where indicated, to obtain a higher yield of HSC-like cells, EBs were kept until day 10: in this case, EBs were plated onto Matrigel (8 μg/cm2, Corning)-coated dishes on day 8 and kept until day 10. Media was changed every day, except on days 5 and 7. On day 8 or 10 (as indicated), EBs were singularized with 5-6 rounds of 5-minute incubations with TryPLE Express (Thermo Fisher Scientific). CD34^+ cells were selected using the human CD34 MicroBead kit (Miltenyi Biotec) and stained with CD34-FITC, CD73-PE, VECad-PerCPCy5.5, CD38-PC7, CD184-APC, CD45-AF700, CD43-APCH7, GPA-eF450, CD90-BV605 and the viability marker 7AAD in order to sort HE (CD34^+CD43^−CXCR4^−CD73^−CD90^+VECad^+), EHT (CD34^+CD43^intCXCR4^−CD73^−CD90^+VECad^+) and HSC-like (CD34^+CD43^+CD90^+CD38^−) cells, according to previously described markers (Guibentif, C. et al. Single-Cell Analysis Identifies Distinct Stages of Human Endothelial to-Hematopoietic Transition. Cell Reports 19, 10-19 (2017); Ditadi, A. et al. Human definitive haemogenic endothelium and arterial vascular endothelium represent distinct lineages. Nat Cell Biol 17, 580-591 (2015); and Choi, K.-D. et al. Identification of the Hemogenic Endothelial Progenitor and Its Direct Precursor in Human Pluripotent Stem Cell Differentiation Cultures. Cell Reports 2, 553-567 (2012)).
# Sorted HE (40,000), EHT (30,000) and HSC-like (5-20,000) cells were plated onto Matrigel (16 μg/cm2, Corning)-coated 96-well flat bottom plates in HE medium with 1% penicillin-streptomycin and kept in a humidified incubator at 37° C., 5% C02, 4% 02 overnight. The following day (day 0), wells were washed twice with PBS and fresh HE medium was added, together with 2-DG (1 mM), UK5099 (10 μM), DCA (3 mM or 10 mM), TSA (60 nM), TCP (300 nM), ACSS2i (5 μM), C646 (10 μM), CP-640186 (5 μM) or Atorvastatin (0.5 μM), where indicated. Media was changed and drugs were added every 2 days and cells were kept in a humidified incubator at 37° C., 5% CO2, 20% O2 for 6-7 days. Pictures were taken using an Olympus IX70 microscope equipped with a CellSens DP72 camera and CellSens Standard 1.6 software (Olympus). For single cell subcultures, single HE cells were directly sorted with a BD FACSAriaIII onto OP9-DL1 stroma in flat-bottom 96-well plates with 120 μl OP9 medium (OptiMEM medium with Glutamax (Invitrogen) with 10% FCS, 1% penicillin-streptomycin solution (Thermo Fisher Scientific) and 1% 2-mercaptoethanol (Invitrogen)) with SCF, IL-6, IL-11, IGF1 and EPO, and with or without 10 μM UK, or 3 mM or 10 mM DCA. The cells were kept in a humidified incubator at 37° C., 5% CO2, 4% O2 and media was replaced every 4 days. […]
# HSC-like cells = experiment: HSC-like cell subculture with metabolic regulators, flow cytometry; assay type: cell-based, human; details: day 3, 2-DG 1 mM
# Source text: The RB9-CB1 human iPSC line (Woods, N.-B. et al. Brief report: efficient generation of hematopoietic precursors and progenitors from human pluripotent stem cell lines. Stem Cells 29, 1158-1164 (2011)) was co-cultured with mouse embryonic fibroblasts (MEFs, Millipore), passaged every six days and processed to form embryoid bodies (EBs) as described previously (Guibentif, C. et al. Single-Cell Analysis Identifies Distinct Stages of Human Endothelial to-Hematopoietic Transition. Cell Reports 19, 10-19 (2017)). The differentiation protocol used in this study was previously described (Ditadi, A. & Sturgeon, C. M. Directed differentiation of definitive hemogenic endothelium and hematopoietic progenitors from human pluripotent stem cells. Methods 101, 65-72 (2016)), however, small modifications were made to induce both primitive and definitive hematopoiesis, as indicated below and in FIG. 6, a. Newly-formed EBs were first kept in SFD medium supplemented with 1 ng/ml Activin A (on days 0-2) and 3 μM CHIR99021 (on day 2 only). At day 3, media was switched to “Day 3-SP34” medium supplemented with 1 ng/ml Activin A (on day 3 only) and 3 μM CHIR99021 (on day 3 only) until day 6. On day 6, media was replaced by “Day 6-SP34” medium, until day 8. […]
# EHT cells = experiment: EHT cell subculture with metabolic regulators, flow cytometry; assay type: cell-based, human; details: EHT cells; day 3; 2-DG 1 mM
# Source text: The RB9-CB1 human iPSC line (Woods, N.-B. et al. Brief report: efficient generation of hematopoietic precursors and progenitors from human pluripotent stem cell lines. Stem Cells 29, 1158-1164 (2011)) was co-cultured with mouse embryonic fibroblasts (MEFs, Millipore), passaged every six days and processed to form embryoid bodies (EBs) as described previously (Guibentif, C. et al. Single-Cell Analysis Identifies Distinct Stages of Human Endothelial to-Hematopoietic Transition. Cell Reports 19, 10-19 (2017)). The differentiation protocol used in this study was previously described (Ditadi, A. & Sturgeon, C. M. Directed differentiation of definitive hemogenic endothelium and hematopoietic progenitors from human pluripotent stem cells. Methods 101, 65-72 (2016)), however, small modifications were made to induce both primitive and definitive hematopoiesis, as indicated below and in FIG. 6, a. Newly-formed EBs were first kept in SFD medium supplemented with 1 ng/ml Activin A (on days 0-2) and 3 μM CHIR99021 (on day 2 only). At day 3, media was switched to “Day 3-SP34” medium supplemented with 1 ng/ml Activin A (on day 3 only) and 3 μM CHIR99021 (on day 3 only) until day 6. On day 6, media was replaced by “Day 6-SP34” medium, until day 8. In some experiments where indicated, to obtain a higher yield of HSC-like cells, EBs were kept until day 10: in this case, EBs were plated onto Matrigel (8 μg/cm2, Corning)-coated dishes on day 8 and kept until day 10. Media was changed every day, except on days 5 and 7. On day 8 or 10 (as indicated), EBs were singularized with 5-6 rounds of 5-minute incubations with TryPLE Express (Thermo Fisher Scientific). […]
# [1] = test system: HE, EHT and HSC-like cells; details: 100 μM FCCP; all cell types
# Method: On days 3 and 6 of subculture, cells were collected after a 2-minute incubation at 37° C. with StemPro Accutase Cell Dissociation Reagent and stained with CD34-FITC, CD14-PE, CD33-PC7, CD11b-APC, CD45-AF700, CD43-APCH7, GPA-eF450, CD90-BV605 and the viability marker 7AAD and fluorescence was measured on a BD LSRII. To measure mitochondrial activity, cells were incubated with Tetramethylrhodamine ethyl ester (TMRE, 20 nM) for 30 minutes at 37° C. Negative controls were incubated with 100 μM FCCP for 30 minutes at 37° C., prior to TMRE staining. […] III and MFI levels—MFI FMO were calculated. […] III. To measure proliferation, cells were processed with the CellTrace Violet (CTV) kit according to manufacturer's instructions (10-minute incubation) and fluorescence was measured on a BD LSRFortessa. To measure EdU incorporation, HE cells were assessed on day 1 or 2 of subculture after 24 h EdU pulses, using Click-iT EdU Flow Cytometry Cell Proliferation Assay (Thermo Fisher Scientific, C10424), according to manufacturer's instructions. Flow cytometry outputs were analyzed on FlowJo Software, with initial gatings on SSC-A/FSC-A, FSC-H/FSC-A, SSC-H/SSC-A and 7-AAD to exclude doublets and dead cells in all experiments.
# iPSC-CD34+ = experiment: NK cell cytotoxic degranulation (CD107) with or without K562 co-culture; assay type: cell-based, human; details: for degranulated NK cells (CD3-CD56+CD16+CD107+ cells) / increase in degranulated NK cells vs untreated control / basal degranulation: absence of K562; for degranulated NK cells (CD3-CD56+CD16+CD107+ cells) / increase in degranulated NK cells vs untreated control: DCA 10 mM, CP 2.5 μM, cholesterol 0.5x; for basal degranulation: vs ctrl; for level of degranulated NK cells when exposed to K562 cells: co-culture with K562
# Source text: NK cell anti-tumour activity can occur via cytotoxic degranulation. CD107 is a marker that is present in the cytotoxic vesicles of NK cells, and so is not expressed on the cell surface of inactivated NK cells. However, upon NK cell activation and degranulation, the CD107 target becomes detectable on the cell surface. Therefore, the level of CD107 detected on NK cells correlates with cytotoxic degranulation. In this assay, several exemplary metabolic regulators were used to assess cytotoxic degranulation in a co-culture assay with K562 cells (an exemplary cancer cell model). As a negative control, iPSC-CD34^+ untreated with a metabolic regulator were used, in which a basal level of 3.27% of degranulated NK cells (CD3^−CD56^+CD16^+CD107^+ cells) were observed (FIG. 16A, top panel).
# [2] = day 6, single agent vs control (1-AA 4 mM, TCP 300 nM, C646 10 μM, CP 5 μM, shRNAs vs shScr)
smiles,measurement,setting,value
COCCNC(=O)Nc1ccc2nc(-c3cccs3)c(-c3cccs3)nc2c1 [ACSS2i],DCA effect on CD43+CD45+ cells under co-treatment,"HE cells; day 6 of HE subculture, ACSS2i 5 μM with DCA 3 mM",did not perturb the DCA effect
"O=CC[C@@H](O)[C@H](O)[C@H](O)CO [2-DG, 2-Deoxy-D-glucose]",proliferation rate (CellTrace Violet),HSC-like cells,significantly reduced
same,CD43+GPA+ cell population,"HE cells; day 3, 2-DG 1 mM",less than 50 % of the control
same,CD43+ cell output from HE cells,"HE cells; day 3 of subculture, 2-DG 1 mM",significantly reduced
same,CD43+CD45+ cell population,"HE cells; day 6, 2-DG 1 mM",less than 50 % of the control
same,proliferation rate (CellTrace Violet),EHT cells,significantly reduced
"N[C@@H]1C[C@H]1c1ccccc1 (racemic) [TCP, Tranylcypromine]",HE-derived CD43+CD45+ (CD45+) cell population,HE cells,more
same,increase in CD43+GPA+ cell frequency following UK5099 treatment when LSD1 is blocked or downregulated,HE cells,could not detect an increase
same,myeloid differentiation (CD43+CD45+CD33+CD11b+),HE cells,specifically increased myeloid differentiation
"N#CC(C#N)=NNc1ccc(OC(F)(F)F)cc1 [FCCP, Carbonyl cyanide 4-(trifluoromethoxy)phenylhydrazone]",TMRE signal,[1],abrogated the TMRE signal
CC(C)CCC[C@@H](C)[C@H]1CC[C@H]2[C@@H]3CC=C4C[C@@H](O)CC[C@]4(C)[C@H]3CC[C@]12C [cholesterol],degranulated NK cells (CD3-CD56+CD16+CD107+ cells),iPSC-CD34+,7.47 % of the population
same,increase in degranulated NK cells vs untreated control,iPSC-CD34+,more than 2 fold
same,basal degranulation,iPSC-CD34+,higher than ctrl
same,level of degranulated NK cells when exposed to K562 cells,iPSC-CD34+,further increased; also recorded: except for Cholesterol treated cells
O=C(c1c2ccccc2cc2ccccc12)N1CCC(N2CCCC(C(=O)N3CCOCC3)C2)CC1 (stereo not shown) [CP],degranulated NK cells (CD3-CD56+CD16+CD107+ cells),iPSC-CD34+,18.3 % of the population
same,increase in degranulated NK cells vs untreated control,iPSC-CD34+,more than 5 fold
same,basal degranulation,iPSC-CD34+,higher than ctrl
same,level of degranulated NK cells when exposed to K562 cells,iPSC-CD34+,further increased; also recorded: increased degranulation
same,HE-derived CD43+CD45+ (CD45+) cell population,HE cells; [2],had the same effect as DCA
CC(C)c1c(C(=O)Nc2ccccc2)c(-c2ccccc2)c(-c2ccc(F)cc2)n1CC[C@@H](O)C[C@@H](O)CC(=O)O [atorvastatin],DCA effect on CD43+CD45+ cells under co-treatment,"HE cells; day 3, Ato 0.5 μM with DCA 3 mM",abrogated the effect of DCA
"CC(/C=C/C(=O)NO)=C\[C@@H](C)C(=O)c1ccc(N(C)C)cc1 [TSA, Trichostatin A]",emergence of CD43+ hematopoietic cells,"HE cells; day 3, TSA 60 nM",impaired the emergence
CC1=NN(c2ccc(C(=O)O)cc2)C(=O)/C1=C/C1=CC=C(c2cc(C)c(C)cc2[NH+]([O-])O)C1 (stereo not shown) [C646],HE-derived CD43+CD45+ (CD45+) cell population,HE cells; [2],did not have an effect
